Results reported in publication PMC13077603, “Fluorine‐18‐Labeled Nucleotide Analogs Targeting Ecto‐5'‐Nucleotidase (CD73) for Positron Emission Tomography Imaging of Solid Tumors” (Angewandte Chemie (International Ed. in English), 2026).
“And” between values parts separate entries of the source, which are not always exact repeats. Equal entries are not always repeated. Where two headings read alike, the source gives them in different places. Blank lines part the entries; values can stand above or below the compound they belong to.

Key:
[1] = target: T1, CD73 in human breast cancer samples (Homo sapiens, UniProt P21589); assay: Autoradiography on human breast tumor and sentinel lymph node cryosections; format: binding; settings: ∼1000‐fold excess of blocker with radiotracer
T1 construct: cryosections of breast tumor samples as well as sentinel lymph node samples were investigated; from tissue; host or cells: primary breast tumors and sentinel lymph nodes of two patients, 6 µm cryosections
T1 sequence (P21589 27-574): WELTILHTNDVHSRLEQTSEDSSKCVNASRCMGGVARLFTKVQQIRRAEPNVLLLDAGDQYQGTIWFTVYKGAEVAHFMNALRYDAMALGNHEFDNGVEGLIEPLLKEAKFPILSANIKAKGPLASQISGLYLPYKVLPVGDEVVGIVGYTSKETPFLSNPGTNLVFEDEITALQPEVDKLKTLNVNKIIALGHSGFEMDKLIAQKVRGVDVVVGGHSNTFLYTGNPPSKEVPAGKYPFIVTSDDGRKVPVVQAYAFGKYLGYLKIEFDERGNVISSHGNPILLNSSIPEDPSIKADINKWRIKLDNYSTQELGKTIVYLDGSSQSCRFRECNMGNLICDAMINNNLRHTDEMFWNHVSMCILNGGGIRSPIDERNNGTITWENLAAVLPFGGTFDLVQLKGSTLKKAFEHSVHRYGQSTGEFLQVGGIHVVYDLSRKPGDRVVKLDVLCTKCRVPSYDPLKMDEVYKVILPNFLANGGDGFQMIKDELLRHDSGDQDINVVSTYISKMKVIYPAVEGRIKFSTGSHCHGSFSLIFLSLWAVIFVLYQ
Method: To test specific radiotracer binding to its target, we performed in situ autoradiography. [^18F]2 was applied onto cryosections of neighboring slides of tumor tissues from primary breast tumors from patient X (Figure 4A) and patient Y (Figure 4B), used for immunohistochemistry and AMPase activity determination. Sentinel LN from patient Y was incubated with [^18F]1 (Figure 4C).
FIGURE 4 Autoradiographic imaging of ^18F‐labeled CD73 tracer binding to tissue samples of breast tumors and sentinel lymph nodes. Primary breast tumor (A, B) and LN cryosections (C) were incubated with [^18F]2 or [^18F]1 in the absence (control) and in the presence of an unlabeled CD73 inhibitor, AMPCP (13) or JMS04‐14 (14), as indicated. The samples were processed for autoradiographic analysis, as described in the materials and methods section. The white dotted lines outline the tissue boundaries. (D). Structures of CD73 inhibitors applied as blockers in this study.
For the assessment of ^18F-labeled CD73 tracer binding to human tissues, cryosections of breast tumor samples as well as sentinel lymph node samples were investigated. Cryosections were thawed and pre-incubated for 15 min at room temperature in 2-[4-(2-hydroxyethyl)piperazin-1-yl]ethanesulfonic acid buffer (HEPES). […] Blocking compounds were prepared according to the molar activity of the radiolabeled tracers [^18F]MRS-4648 and [^18F]PSB-19427 aiming at a 1000-fold excess of the blocking agent. For each tissue sample, neighboring sections were incubated for 20 min at room temperature with a mixture of 50µL of the radiotracer and 50µL of the classical CD73 inhibitor AMPCP (25 nmol, in PBS), or JMS0414 (61 nmol, in HEPES), or HEPES buffer respectively. After incubation, slides were washed three times with PBS and Aqua bidest, mounted on a slide holder for the image acquisition, and covered with protection and scintillation foils. Digital autoradiography measurement of each slide was performed for 60 minutes (Micro Imager, Biospace, France). Acquired data were corrected for radioactive decay in reference to the start of the acquisition as well as the start of the incubation.

[2] = target: T2, CD73 (cell membrane preparations of MDA-MB-231 cells) (Homo sapiens, UniProt P21589); assay: Kinetic rate index radioligand binding assay, estimation of residence time
T2 construct: endogenous in cells; host or cells: MDA-MB-231 (human triple-negative breast cancer) membrane preparation
T2 sequence (P21589 27-574): T1 sequence (P21589 27-574)
Description: Besides affinity, binding kinetics play a crucial role in determining in vivo tracer performance. The clinical CD73 inhibitor Quemliclustat has been reported to display a very long residence time. We therefore determined the kinetic rate index (KRI) of selected CD73 inhibitors using a radioligand binding assay. […] These comparatively long residence times indicate slow dissociation from the target, which may contribute to the sustained tumor retention of [^18F]1 observed in vivo. Another effect that might play a role is pharmacological inhibition of CD73 by the high concentration of the CD73 inhibitor used for blocking. This will lead to a strong reduction in adenosine concentrations, for example, in blood vessels and other tissues, which may change hemodynamics and drug distribution. […]
Cell membrane preparations of MDA-MB-231 cells were performed as previously described.^[9^] A dual point competition assay (at 20 min and 90 min) using [^3H]PSB-17230 was employed for the determination of kinetic rate index (KRI) in analogy to a published procedure,^[60^] determined at 25°C. The residence times were calculated by linear correlation based on a large database of previously determined KRI values and residence times of analogs.

MDA‐MB‐231 tumor = assay: PET imaging in MDA-MB-231 breast cancer xenograft model; format: in vivo, NSG mice; settings: MDA‐MB‐231 model
Method: Given the specificity of [^18F]1 and [^18F]2 and the promising in vivo biodistribution profile of [^18F]1, we established a small‐animal human breast tumor xenograft model in NSG mice subcutaneously implanted with MDA‐MB‐231 cells. […] For blocking studies, PSB‐12651 (15, Figure 6) or unlabeled 1 were used.
FIGURE 6 PET imaging data in an MDA‐MB‐231 tumor mouse model. (A). PET images, CT scans, and merged images of [^18F]2 in the MDA‐MB‐231 tumor mouse model 90 min after tracer injection. White arrows mark the tumor positions. (B). Quantitative PET analysis of [^18F]2 uptake: activity concentration of [^18F]2 in muscle and tumor tissues 90 min after tracer injection (left) and respective tumor‐to‐muscle ratio (right, n = 5 tumors). (C). PET‐CT images of [^18F]1 and [^18F]FDG in the MDA‐MB‐231 tumor mouse model, 260 min ([^18F]1), or 75 min ([^18F]FDG) after injection. […] White arrows mark the positions of tumors. (D). Quantitative PET analysis of [^18F]1 uptake: activity concentration of [^18F]1 and [^18F]FDG in muscle and tumor tissues (left) and tumor‐to‐muscle ratios (right) after 260 min. [^18F]1: n = 18 tumors, [^18F]1 plus unlabeled 1 block: n = 8 tumors, [^18F]1 plus compound 15 block: n = 6 tumors, [^18F]FDG: n = 18 tumors E. Ex vivo analysis of [^18F]1 uptake as measured by gamma counter: activity concentrations of [^18F]1 in muscle and tumor tissues after 260 min without and with blocking (left) and tumor‐to‐muscle ratios (right). [^18F]1: n = 6 tumors, [^18F]1 plus unlabeled 1 block: n = 6 tumors, [^18F]1 plus compound 15 block: n = 5 tumors.^# relative to the respective muscle, *relative to [^18F]1 without blocker, relative to the unblocked tumor; *<0.05; **<0.01, ***<0.001,^#<0.05; ^## <0.01, ^###<0.001, <0.05; <0.01, <0.001, ns: non‐significant, unpaired t‐test.
MDA-MB-231 cells were cultivated in DMEM/GlutaMAX, supplemented with 10 % fetal calf serum, 100 U/mL penicillin, and 100 µg/mL streptomycin and L-glutamine to a final concentration of 8 mmol/L. AsPC-1 cells were cultivated in RPMI, supplemented with 10 % fetal calf serum, 100 U/mL penicillin, and 100 µg/mL streptomycin and L-glutamine to a final concentration of 8 mmol/L. 5 x 10^6 MDA-MB-231 or 1x 10^6 AsPC-1 cells were injected subcutaneously into the shoulder region of 7 to 12 weeks old NSG (NOD.Cg-Prkdc^scid Il2rg^tm1Wjl/SzJ) mice (Charles River Laboratories). Two tumors were inoculated per animal, and growth was followed by digital caliper measurements (volume = ½ (length * width^2)).
Adult C57bl/6 (biodistribution study, 19.8±1.3 g) or tumor-bearing NSG mice (22.2±2.2 g) were anesthetized by isoflurane/O2, and one lateral tail vein was cannulated using a 27 G needle. A respective radiotracer (~ 390 kBq/g body weight) was injected as a bolus via the tail vein, and subsequent PET scanning was performed. A ~1000-fold excess of unlabeled JMS0414 (14 for [^18F]MRS-4648 ([^18F]2)), unlabeled PSB-19427 (1), or PSB-12651 (15) (for [^18F]PSB-19427 ([^18F]1)) was injected into a subgroup of tumor-bearing mice 10 min before radiotracer injection in the blocking studies. PET imaging studies were carried out using a submillimeter high resolution (0.7 mm full width at half-maximum) small animal scanner (32 module quadHIDAC, Oxford Positron Systems Ltd., Oxford, UK) with a uniform spatial resolution (<1 mm) over a large cylindrical field (165 mm diameter, 280 mm axial length). […]

SMILES: Nc1ncnc2c1ncn2[C@@H]1O[C@H](COP(=O)(O)CP(=O)(O)O)[C@@H](O)[C@H]1O [AMPCP, reference compound]
Effect of co-incubated blocker on tissue-associated radioactivity [1]: markedly reduced
residence time [2]: 8.8 min

Effect of co-incubated blocker on tissue-associated radioactivity [1]: markedly reduced
SMILES: Cn1c(=O)n([C@@H]2O[C@H](COP(=O)(O)CP(=O)(O)O)[C@@H](O)[C@H]2O)cc/c1=N/OCc1ccccc1 [JMS04-14, reference compound]

residence time ([2]; estimated from kinetic rate index, [3H]PSB-17230, 25 °C, read-out: Residence time): 31 min
SMILES: O=P(O)(O)CP(=O)(O)OC[C@H]1O[C@@H](n2cnc3c(NCc4ccccc4)nc(Cl)nc32)[C@H](O)[C@@H]1O [PSB-12651, reference compound]
Effect of blocker pre-treatment on tumor-to-muscle ratio of [18F]1 (MDA‐MB‐231 tumor; ~1000-fold excess injected 10 min before tracer): markedly reduced

Tumor-to-muscle ratio (MDA‐MB‐231 tumor; [18F]FDG PET, 75 min after injection): 2.04 ± 1.0 and 2.04
SMILES: O=C[C@H]([18F])[C@@H](O)[C@H](O)[C@H](O)CO [[^18F]FDG, 2‐deoxy‐2‐[^18F]fluoro‐D‐glucose, reference compound]
